Measurements published in patent US5399487A, “6-peptidylamino-1-naphthalenesulfonamides useful as fluorogenic proteolytic enzyme substrates” (Haematologic Technologies, Inc., priority 1993, dated 1995).

Experiments:
Assay type in all cases: biochemical
[1] = target: activated protein C (APC) (Homo sapiens, UniProt P04070); experiment: Fluorogenic enzyme assay (Example 5)
How it was run: (§1)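 Run in TBS (20 mM Tris, 150 mM NaCl, pH 7.4) at 22° C. Enzyme was added to buffer plus fluorogenic substrate, and the initial hydrolysis rate was followed as release of a 6-amino-1-naphthalenesulfonamide fluorophore (ex 352 nm, em 470 nm), quantified against a fluorophore standard curve. Km and kcat came from Michaelis-Menten fits.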

thrombin (IIa) = target: T1, thrombin (IIa) (Homo sapiens, UniProt P00734); experiment: Fluorogenic enzyme assay (Example 5)
T1 construct: 0.5 nM human thrombin (IIa)
How it was run: as §1

urokinase (u-PA) = urokinase (u-PA) (Homo sapiens, UniProt P00749); experiment: Fluorogenic enzyme assay (Example 5); settings: 100 nM enzyme, substrate 1 μM
[2] = target: tissue plasminogen activator (t-PA) (Homo sapiens, UniProt P00750); experiment: Fluorogenic enzyme assay (Example 5); settings: 100 nM enzyme, substrate 1 μM
How it was run: as §1

plasmin (Plm) = plasmin (Plm) (Homo sapiens, UniProt P00747); experiment: Fluorogenic enzyme assay (Example 5); settings: 10 nM enzyme, substrate 1 μM
How it was run: as §1

factor Xa [3] = target: T2, factor Xa (Homo sapiens, UniProt P00742); experiment: Fluorogenic enzyme assay (Example 5)
How it was run: as §1

factor VIIa = target: T3, factor VIIa (Homo sapiens, UniProt P08709); experiment: Fluorogenic enzyme assay, relative hydrolysis rates (Table 8); settings: at 100 hours; 10 nM enzyme, substrate 1 μM
T3 construct: directly measure the enzymatic activity of factor VIIa in the presence and absence of tissue factor and phospholipid
T3 sequence (P08709 213-466 limits assumed): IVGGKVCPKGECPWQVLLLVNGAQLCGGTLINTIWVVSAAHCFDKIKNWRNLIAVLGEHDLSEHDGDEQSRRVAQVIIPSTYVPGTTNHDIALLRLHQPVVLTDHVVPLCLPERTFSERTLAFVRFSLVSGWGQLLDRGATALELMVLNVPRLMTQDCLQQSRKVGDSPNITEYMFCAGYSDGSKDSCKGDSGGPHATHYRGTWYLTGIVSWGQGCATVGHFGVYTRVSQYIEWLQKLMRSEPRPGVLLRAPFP
T3 sequence (P08709 61-212 limits assumed): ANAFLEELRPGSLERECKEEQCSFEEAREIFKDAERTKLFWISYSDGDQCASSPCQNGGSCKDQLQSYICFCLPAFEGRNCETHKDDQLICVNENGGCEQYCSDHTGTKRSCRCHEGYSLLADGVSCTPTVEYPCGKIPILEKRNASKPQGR
Procedure: (§2) Enzyme assays (except factor VIIa assays, see below) were conducted in 20 mM Tris, 150 mM NaCl, pH 7.4 (TBS) at room temperature (22° C.). The final volume for all reaction mixtures was 2.0 ml. Fluorogenic substrates were dissolved in DMSO to a stock concentration of 10 mM. The 10 mM stock solution was diluted in TBS to the final working concentration prior to all assays. Enzyme was added to mixtures containing buffer components and substrate and the initial rate of substrate hydrolysis was measured as the change in fluorescent intensity over time, corresponding to the generation of the particular 6-amino-1-naphthalenesulfonamide fluorophore from the provided substrate. Quantitation of substrate hydrolysis was accomplished by establishing a standard curve from the appropriate fluorescent moiety. Fluorescence was monitored (continuously or discontinuously) using a Perkin Elmer fluorescence spectrophotometer, model MPF-44A, equipped with a standard chart recorder. The fluorophore was detected using monochrometers set at an excitation wavelength of 352 nm and an emission wavelength of 470 nm. Light scattering artifacts were minimized using a 399 nm cut off filter in the emission light beam.
Factor VII assays were conducted in 20 mM HEPES, 150 mM NaCl, 5 mM CaCl2, pH 7.4 (HBS) at 37° C. The final volume for all reactions was 1.6 ml. 6-(Mes-D-Leu-Gly-Arg)amino-1-(N,N-diethyl)naphthalenesulfonamide was dissolved in DMSO to a stock concentration of 10 mM. This 10 mM stock solution of was diluted in HBS to final working concentration prior to all assays. For reactions involving tissue factor (TF) and phospholipid vesicles, recombinant human tissue factor was solubilized in either 0.04% n-dodecyl octaethylene glycol (C12 E8) or 0.8% octyl glucoside. The TF/n-dodecyl octaethylene glycol was then relipidated into PCPS or PC vesicles by a 30 minute incubation step as described by Lawson & Mann, J. Biol. Chem. 266: 11317-11327 (1991). TF/octyl glucoside was relipidated into PC or PCPS vesicles by a thirty minute incubation step followed by exhaustive dialysis. The final concentration of tissue factor used in the studies described here ranged from 2 to 50 nM depending on the nature of the experiment.
Fifteen minutes prior to the start of all reactions factor VIIa was added to the reaction system. This incubation period was followed by the addition of substrate (1 μM to 400 μM) to the mixture to start the reaction. In experiments designed to determine kinetic constants of substrate hydrolysis, 50 nM rVIIa was used when no tissue factor was present in the reaction system, while 0.5 nM rVIIa was used when tissue factor was present in the reaction system. The rate of substrate hydrolysis was measured by change in fluorescence over time, which corresponded with the generation of the 6-amino-1-(N,N-diethyl)naphthalenesulfonamide from the provided substrate. The kinetic constants of 6-(Mes-D-Leu-Gly-Arg)amino-1-(N,N-diethyl)naphthalenesulfonamide hydrolysis as a function of factor VIIa/tissue factor complex assembly are shown in Table 10.

factor IXa = factor IXa (Homo sapiens, UniProt P00740); experiment: Fluorogenic enzyme assay (Example 5)
Procedure: as §2
The kinetic constants of substrate hydrolysis were determined using the non-linear least squares regression analysis program ENZFITTER (Cambridge, UK). This program was used to iteratively fit initial rates of substrate hydrolysis to the Michaelis-Menten equation and the kinetic constants of substrate hydrolysis (Km) and (kcat) were calculated.

factor Xa [4] = target: T2, factor Xa; experiment: Kinetic constants of substrate hydrolysis, Chromozyme TH vs TosGPR-ANSN (Table A); settings: 22° C., 0.02M TBS pH 7.4, 0.15M NaCl
Procedure: (§3) The 6-amino-1-naphthalenesulfonamide detecting group increased the specificity of the overall kinetic efficiency of substrate hydrolysis by thrombin relative to the rate of hydrolysis of the p-nitroanilide substrate chromozyme TH (American Diagnostics). Commercially available substrate (Chromozyme TH, TosGPR-p-NA) was compared to a substrate of the present invention, Tosgly-pro-arg-ANSN(i-C4 H9) (TosGPR-ANSNH(i-C4 H9)) in an assay performed at 22° C. in 0.02M TBS buffer at pH 7.4, containing 0.15M NaCl.

factor IIa = target: T4, factor IIa (Homo sapiens, UniProt P00734); experiment: as above; settings: 22° C., 0.02M TBS pH 7.4, 0.15M NaCl
T4 construct: 0.5 nM human thrombin (IIa)
Procedure: as §3

Sequence of activated protein C (APC) (P04070 212-461 limits assumed): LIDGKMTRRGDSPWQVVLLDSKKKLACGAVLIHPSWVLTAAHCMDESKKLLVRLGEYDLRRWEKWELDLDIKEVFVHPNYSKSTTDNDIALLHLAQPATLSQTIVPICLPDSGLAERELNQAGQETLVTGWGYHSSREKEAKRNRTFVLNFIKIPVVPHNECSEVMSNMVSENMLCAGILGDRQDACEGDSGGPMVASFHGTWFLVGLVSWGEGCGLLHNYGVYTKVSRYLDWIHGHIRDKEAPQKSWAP
Sequence of activated protein C (APC) (P04070 43-197 limits assumed): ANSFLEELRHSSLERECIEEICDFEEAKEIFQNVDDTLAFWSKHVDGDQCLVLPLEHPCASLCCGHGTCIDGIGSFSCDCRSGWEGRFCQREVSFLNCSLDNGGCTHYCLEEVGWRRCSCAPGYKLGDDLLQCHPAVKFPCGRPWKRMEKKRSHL
Sequence of factor IXa (P00740 227-461 limits assumed): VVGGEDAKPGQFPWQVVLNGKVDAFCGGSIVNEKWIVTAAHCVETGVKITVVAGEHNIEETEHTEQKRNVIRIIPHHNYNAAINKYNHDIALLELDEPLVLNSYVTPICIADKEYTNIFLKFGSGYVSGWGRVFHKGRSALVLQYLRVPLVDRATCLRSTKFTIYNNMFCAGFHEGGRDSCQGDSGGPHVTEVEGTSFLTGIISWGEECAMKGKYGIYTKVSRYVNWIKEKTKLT
Sequence of factor IXa (P00740 47-191 limits assumed): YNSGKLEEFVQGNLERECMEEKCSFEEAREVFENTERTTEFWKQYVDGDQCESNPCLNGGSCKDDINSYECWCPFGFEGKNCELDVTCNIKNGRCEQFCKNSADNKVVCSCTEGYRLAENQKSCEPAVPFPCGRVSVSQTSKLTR
T2 sequence (P00742 235-488 limits assumed): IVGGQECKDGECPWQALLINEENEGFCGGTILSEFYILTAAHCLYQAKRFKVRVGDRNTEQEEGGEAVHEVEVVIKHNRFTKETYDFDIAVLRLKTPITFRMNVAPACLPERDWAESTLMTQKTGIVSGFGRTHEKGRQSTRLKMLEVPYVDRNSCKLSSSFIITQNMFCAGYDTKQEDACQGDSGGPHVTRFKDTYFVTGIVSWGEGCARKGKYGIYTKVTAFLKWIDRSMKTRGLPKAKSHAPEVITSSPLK
T2 sequence (P00742 41-179 limits assumed): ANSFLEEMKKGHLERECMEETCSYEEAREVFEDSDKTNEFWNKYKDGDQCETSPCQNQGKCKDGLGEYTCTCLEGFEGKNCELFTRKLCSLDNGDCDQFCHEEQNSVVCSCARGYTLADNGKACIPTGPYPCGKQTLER
Sequence of plasmin (Plm) (P00747 581-810 limits assumed, species assumed): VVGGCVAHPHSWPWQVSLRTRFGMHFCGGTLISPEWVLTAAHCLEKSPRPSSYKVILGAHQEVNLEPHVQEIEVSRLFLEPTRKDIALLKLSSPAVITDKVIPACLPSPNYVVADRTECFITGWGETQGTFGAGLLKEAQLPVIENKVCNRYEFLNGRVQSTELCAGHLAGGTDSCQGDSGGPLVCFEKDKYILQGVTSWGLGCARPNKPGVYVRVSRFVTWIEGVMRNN
Sequence of plasmin (Plm) (P00747 97-580 limits assumed, species assumed): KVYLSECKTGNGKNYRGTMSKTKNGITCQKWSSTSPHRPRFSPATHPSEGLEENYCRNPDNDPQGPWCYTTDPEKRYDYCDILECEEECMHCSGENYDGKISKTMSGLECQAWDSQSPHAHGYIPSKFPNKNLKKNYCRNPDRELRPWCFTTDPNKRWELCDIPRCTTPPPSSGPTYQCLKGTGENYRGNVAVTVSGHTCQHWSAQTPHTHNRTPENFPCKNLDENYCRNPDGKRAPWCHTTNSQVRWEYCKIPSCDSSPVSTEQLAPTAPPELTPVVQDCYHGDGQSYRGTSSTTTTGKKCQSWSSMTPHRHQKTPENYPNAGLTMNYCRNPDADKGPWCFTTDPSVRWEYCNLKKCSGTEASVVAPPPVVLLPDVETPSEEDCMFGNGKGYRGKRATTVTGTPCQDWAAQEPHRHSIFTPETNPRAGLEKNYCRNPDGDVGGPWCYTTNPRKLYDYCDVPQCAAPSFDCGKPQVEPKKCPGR
Sequence of tissue plasminogen activator (t-PA) (P00750 36-562, species assumed): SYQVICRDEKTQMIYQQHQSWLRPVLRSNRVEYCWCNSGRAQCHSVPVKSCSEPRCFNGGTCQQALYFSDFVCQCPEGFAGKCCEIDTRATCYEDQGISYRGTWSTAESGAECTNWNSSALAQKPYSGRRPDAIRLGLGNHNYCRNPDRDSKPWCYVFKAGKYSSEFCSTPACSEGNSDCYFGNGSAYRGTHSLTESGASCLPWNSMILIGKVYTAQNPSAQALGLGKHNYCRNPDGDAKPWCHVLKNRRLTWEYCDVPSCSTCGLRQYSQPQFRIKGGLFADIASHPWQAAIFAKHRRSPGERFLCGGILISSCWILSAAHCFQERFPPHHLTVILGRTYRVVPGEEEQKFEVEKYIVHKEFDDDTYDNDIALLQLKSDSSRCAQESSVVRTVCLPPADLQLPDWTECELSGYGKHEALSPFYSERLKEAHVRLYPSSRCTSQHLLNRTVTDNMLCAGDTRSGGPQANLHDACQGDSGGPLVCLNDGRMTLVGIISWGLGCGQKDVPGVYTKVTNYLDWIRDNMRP

TIME TO 10% HYDROLYSIS (HOURS), APC ([1]; 10 nM enzyme, substrate 1 μM): 0.02 h
Km ([1]; Table 9): 800 µM
kcat /Km, APC ([1]; Table 9): 150000 M⁻¹ s⁻¹
kcat, APC ([1]; Table 9): 120 s⁻¹
TIME TO 10% HYDROLYSIS (HOURS), IIa (thrombin (IIa); 1 nM enzyme (footnote c), substrate 1 μM): 0.01 h
Km (thrombin (IIa); Table 9): 11 µM
kcat, IIa (thrombin (IIa); Table 9): 52.6 s⁻¹
TIME TO 10% HYDROLYSIS (HOURS), u-PA (urokinase (u-PA)): 0.01 h
TIME TO 10% HYDROLYSIS (HOURS), t-PA [2]: 2 h
TIME TO 10% HYDROLYSIS (HOURS), Plm (plasmin (Plm)): 0.25 h
TIME TO 10% HYDROLYSIS (HOURS), Xa (factor Xa [3]; 10 nM enzyme, substrate 1 μM): 0.05 h
Km (factor Xa [3]; Table 9): 35.3 µM
kcat /Km, Xa (factor Xa [3]; Table 9): 6800 M⁻¹ s⁻¹
kcat, Xa (factor Xa [3]; Table 9): 2.4 s⁻¹
TIME TO 10% HYDROLYSIS (HOURS), IXa (factor IXa; 100 nM enzyme, substrate 1 μM): 42 h
Km (factor IXa; Table 9): 123 µM
kcat, IXa (factor IXa; Table 9): 0.3 s⁻¹
kcat/Km, IXa (factor IXa; Table 9): 2400 M⁻¹ s⁻¹
Kcat (factor Xa [4]): 11.2 s⁻¹
Km (factor Xa [4]): 132 µM
Kcat (factor IIa): 45.6
Km (factor IIa): 10.5 µM
SMILES: Cc1ccc(S(=O)(=O)NCC(=O)N2CCC[C@H]2C(=O)N[C@@H](CCCNC(=N)N)C(=O)Nc2ccc3c(S(=O)(=O)NCC(C)C)cccc3c2)cc1 [TosGPR-ANSNH(i-C4 H9)]
hydrolysis, VIIa (symbol d) (factor VIIa): d (hydrolysis at 100 hours was less than 10%.)
